Results reported in PubChem BioAssay (NCI).
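Five compound concentrations were applied to cells in 96-well plates for 48 hours; endpoints were derived by simple linear interpolation of the resulting dose-response curve. The concentration for 50% growth inhibition is given as GI50. TGI is the concentration that stops growth completely.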

Columns and labels:
Assay in all cases: inhibition of tumour cell growth, NCI panel, 48 h
786-0 renal = system: 786-0 renal
A498 renal = system: A498 renal
A549 NSCLC = system: A549 NSCLC
ACHN renal = system: ACHN renal
BT-549 breast = system: BT-549 breast
CAKI-1 renal = system: CAKI-1 renal
CCRF-CEM leukemia = system: CCRF-CEM leukemia
DU-145 prostate = system: DU-145 prostate
EKVX NSCLC = system: EKVX NSCLC
HCC-2998 colon = system: HCC-2998 colon
HCT-116 colon = system: HCT-116 colon
HCT-15 colon = system: HCT-15 colon
HL-60(TB) leukemia = system: HL-60(TB) leukemia
HOP-62 NSCLC = system: HOP-62 NSCLC
HOP-92 NSCLC = system: HOP-92 NSCLC
HS 578T breast = system: HS 578T breast
HT29 colon = system: HT29 colon
IGROV1 ovarian = system: IGROV1 ovarian
K-562 leukemia = system: K-562 leukemia
KM12 colon = system: KM12 colon
LOX IMVI melanoma = system: LOX IMVI melanoma
M14 melanoma = system: M14 melanoma
MALME-3M melanoma = system: MALME-3M melanoma
MCF7 breast = system: MCF7 breast
MDA-MB-231 breast = system: MDA-MB-231 breast
MDA-MB-435 = system: MDA-MB-435
MOLT-4 leukemia = system: MOLT-4 leukemia
NCI-H226 lung = system: NCI-H226 lung
NCI-H23 lung = system: NCI-H23 lung
NCI-H460 lung = system: NCI-H460 lung
NCI-H522 lung = system: NCI-H522 lung
NCI/ADR-RES ovarian = system: NCI/ADR-RES ovarian
OVCAR-3 ovarian = system: OVCAR-3 ovarian
OVCAR-4 ovarian = system: OVCAR-4 ovarian
OVCAR-5 ovarian = system: OVCAR-5 ovarian
OVCAR-8 ovarian = system: OVCAR-8 ovarian
PC-3 prostate = system: PC-3 prostate
RPMI-8226 leukemia = system: RPMI-8226 leukemia
RXF 393 renal = system: RXF 393 renal
SF-268 CNS = system: SF-268 CNS
SF-295 CNS = system: SF-295 CNS
SF-539 CNS = system: SF-539 CNS
SK-MEL-2 melanoma = system: SK-MEL-2 melanoma
SK-MEL-28 melanoma = system: SK-MEL-28 melanoma
SK-MEL-5 melanoma = system: SK-MEL-5 melanoma
SK-OV-3 ovarian = system: SK-OV-3 ovarian
SN12C renal = system: SN12C renal
SNB-19 CNS = system: SNB-19 CNS
SNB-75 CNS = system: SNB-75 CNS
SR leukemia = system: SR leukemia
SW-620 colon = system: SW-620 colon
T-47D breast = system: T-47D breast
TK-10 renal = system: TK-10 renal
U251 CNS = system: U251 CNS
UACC-257 melanoma = system: UACC-257 melanoma
UACC-62 melanoma = system: UACC-62 melanoma
UO-31 renal = system: UO-31 renal

## O=C(CSc1nc2ccc([N+](=O)[O-])cc2[nH]1)Nc1ccc([N+](=O)[O-])cc1
786-0 renal
  GI50: 3.02 µM
  TGI: 13.5 µM
A498 renal
  GI50: 1.34 µM
  TGI: 3.8 µM
A549 NSCLC
  GI50: 2.94 µM
  TGI: 14.2 µM
ACHN renal
  GI50: 2.49 µM
  TGI: 8.02 µM
BT-549 breast
  GI50: 2.34 µM
  TGI: 14.3 µM
CAKI-1 renal
  GI50: 2.08 µM
  TGI: 7.67 µM
CCRF-CEM leukemia
  GI50: 2.48 µM
  TGI: > 100 µM
DU-145 prostate
  GI50: 3.51 µM
  TGI: 15.6 µM
EKVX NSCLC
  GI50: 2.23 µM
  TGI: 10.8 µM
HCC-2998 colon
  GI50: 3 µM
  TGI: 15.3 µM
HCT-116 colon
  GI50: 2.7 µM
  TGI: > 32.6 µM
HCT-15 colon
  GI50: 2.93 µM
  TGI: 17.6 µM
HL-60(TB) leukemia
  GI50: 2.81 µM
  TGI: > 25.7 µM
HOP-62 NSCLC
  GI50: 2.32 µM
  TGI: 12.1 µM
HOP-92 NSCLC
  GI50: 0.293 µM
  TGI: 2.22 µM
HS 578T breast
  GI50: 2.31 µM
  TGI: 10.2 µM
HT29 colon
  GI50: 2.82 µM
  TGI: 10.6 µM
IGROV1 ovarian
  GI50: 2.71 µM
  TGI: 15.2 µM
K-562 leukemia
  GI50: 2.49 µM
  TGI: > 100 µM
KM12 colon
  GI50: 2.65 µM
  TGI: 12.9 µM
LOX IMVI melanoma
  GI50: 2.75 µM
  TGI: 12.2 µM
M14 melanoma
  GI50: 2.73 µM
  TGI: 19.9 µM
MALME-3M melanoma
  GI50: 1.88 µM
  TGI: 8.1 µM
MCF7 breast
  GI50: 1.95 µM
  TGI: 8.83 µM
MDA-MB-231 breast
  GI50: 2.08 µM
  TGI: 6.31 µM
MDA-MB-435
  GI50: 2.66 µM
  TGI: 12.7 µM
MOLT-4 leukemia
  GI50: 2.81 µM
  TGI: > 32.3 µM
NCI-H226 lung
  GI50: 2 µM
  TGI: 7.88 µM
NCI-H23 lung
  GI50: 2.14 µM
  TGI: 9.51 µM
NCI-H460 lung
  GI50: 2.9 µM
  TGI: 12.3 µM
NCI-H522 lung
  GI50: 1.69 µM
  TGI: 9.01 µM
NCI/ADR-RES ovarian
  GI50: 2.46 µM
  TGI: 8.19 µM
OVCAR-3 ovarian
  GI50: 2.05 µM
  TGI: 10.9 µM
OVCAR-4 ovarian
  GI50: 1.92 µM
  TGI: 29.3 µM
OVCAR-5 ovarian
  GI50: 2.78 µM
  TGI: 12.9 µM
OVCAR-8 ovarian
  GI50: 2.79 µM
  TGI: > 35.7 µM
PC-3 prostate
  GI50: 2.38 µM
  TGI: 12.5 µM
RPMI-8226 leukemia
  GI50: 1.27 µM
  TGI: > 23.2 µM
RXF 393 renal
  GI50: 1.95 µM
  TGI: 7.24 µM
SF-268 CNS
  GI50: 2.72 µM
  TGI: 14.5 µM
SF-295 CNS
  GI50: 2.03 µM
  TGI: 6.43 µM
SF-539 CNS
  GI50: 2.96 µM
  TGI: 11.9 µM
SK-MEL-2 melanoma
  GI50: 1.97 µM
  TGI: 5.81 µM
SK-MEL-28 melanoma
  GI50: 2.82 µM
  TGI: 14.2 µM
SK-MEL-5 melanoma
  GI50: 1.2 µM
  TGI: 2.54 µM
SK-OV-3 ovarian
  GI50: 1.89 µM
  TGI: 5.59 µM
SN12C renal
  GI50: 2.26 µM
  TGI: 10.6 µM
SNB-19 CNS
  GI50: 3.02 µM
  TGI: 18 µM
SNB-75 CNS
  GI50: 1.84 µM
  TGI: 6.95 µM
SR leukemia
  GI50: 3.15 µM
  TGI: > 46.4 µM
SW-620 colon
  GI50: 3.24 µM
  TGI: 17.6 µM
T-47D breast
  GI50: 1.59 µM
  TGI: 12.9 µM
TK-10 renal
  GI50: 3.47 µM
  TGI: 11 µM
U251 CNS
  GI50: 2.62 µM
  TGI: 15.5 µM
UACC-257 melanoma
  GI50: 1.75 µM
  TGI: 6.71 µM
UACC-62 melanoma
  GI50: 1.36 µM
  TGI: 7.52 µM
UO-31 renal
  GI50: 1.4 µM
  TGI: 8.18 µM
